This note sets out measurements from patent publication US10689344B2, “Biphenylamide derivative Hsp90 inhibitors” (University of Kansas, priority 2013, dated 2020).

For experiment [1], the system named is MCF-7 (estrogen receptor positive breast cancer cells). Nature of the experiment: Anti-proliferation assay (MTS/PMS, 72 h), MCF-7. To be noted: Homo sapiens. It counts as cell-based. Here is the method:
(§1) Cells were maintained in a 1:1 mixture of Advanced DMEM/F12 (Gibco) supplemented with non-essential amino acids, L-glutamine (2 mM), streptomycin (500 μg/mL), penicillin (100 units/mL), and 10% FBS. Cells were grown to confluence in a humidified atmosphere (37° C., 5% CO2), seeded (2000/well, 100 μL) in 96-well plates, and allowed to attach overnight. Compound at varying concentrations in DMSO (1% DMSO final concentration) was added, and cells were returned to the incubator for 72 h. At 72 h, the number of viable cells was determined using an MTS/PMS cell proliferation kit (Promega) per the manufacturer's instructions. Cells incubated in 1% DMSO were used at 100% proliferation, and values were adjusted accordingly. IC50 values were calculated from separate experiments performed in triplicate using GraphPad Prism.
(§2) Anti-proliferative studies with the compounds described herein were performed against the SKBr3 (estrogen receptor negative, HER2 over-expressing breast cancer cells) and MCF-7 (estrogen receptor positive breast cancer cells) breast cancer cell lines. […] In some embodiments, in contrast to the novobiocin derivatives, which usually manifest better anti-proliferative activities against the SKBr3 cell line, the biphenyl derivatives described herein were more efficacious against the MCF-7 cell line. In general, all substitutions on the phenyl ring were determined to be beneficial, consistent with the existence of a hydrophobic pocket in this region of the Hsp90 C-terminal binding site.

The test system of experiment [2] is SKBr3 (estrogen receptor negative, HER2 over-expressing breast cancer cells). Put plainly: Anti-proliferation assay (MTS/PMS, 72 h), SKBr3. To be noted: Homo sapiens. It counts as cell-based. Here is the method:
as §1, §2

Setting [3] is: MCF7, Table 6, para-para biphenyl core with substituted benzylamide.
[4] abbreviates: SK-BR-3, Table 6, para-para biphenyl core with substituted benzylamide.
Where [5] appears, read: MCF7, Table 3, substituted para-para biphenyl core.
[6] abbreviates: SK-BR-3, Table 3, substituted para-para biphenyl core.
The mark [7] stands for this setting: MCF7, Table 1, ortho, meta and para biphenyl cores.
[8] abbreviates: MCF7, Table 2, para-meta biphenyl core with substituted benzylamide.
Where [9] appears, read: SK-BR-3, Table 1, ortho, meta and para biphenyl cores.
Setting [10] is: SK-BR-3, Table 2, para-meta biphenyl core with substituted benzylamide.
Where [11] appears, read: MCF7, Table 8, para-para biphenyl core with substituted biphenylamide group.
[12] abbreviates: SK-BR-3, Table 8, para-para biphenyl core with substituted biphenylamide group.
[13] abbreviates: MCF7, Table 4, para-para heteroatom substituted biphenyl core.
Where [14] appears, read: SK-BR-3, Table 4, para-para heteroatom substituted biphenyl core.

As a reminder, the IC50 is the point on the concentration scale where inhibition reaches its midpoint. The low end stands for greater potency in that assay, the high end for weaker potency in that assay.

As to `Cc1ccc(C(=O)Nc2ccc(-c3ccc(OC4CCN(C)CC4)cc3)cc2)cc1` [Compound 41e, 4-methyl-N-(4′-((1-methylpiperidin-4-yl)oxy)-[1,1′-biphenyl]-4-yl)benzamide], the figures for the IC50 in experiment [1] (setting [3]) and in experiment [2] (setting [4]) were 1270 ± 130 nM and 980 ± 190 nM, respectively.
As to `COc1cccc(-c2cc(C(=O)Nc3ccc(-c4ccc(OC5CCN(C)CC5)cc4)cc3C)ccc2OC)c1` [Compound 29d, 3′,6-dimethoxy-N-(3-methyl-4′-((1-methylpiperidin-4-yl)oxy)-[1,1′-biphenyl]-4-yl)-[1,1′-biphenyl]-3-carboxamide], the IC50 amounted to 1430 ± 350 nM in experiment [1] (setting [5]) and 2470 ± 390 nM in experiment [2] (setting [6]).
On to `CN1CCC(Oc2ccc(-c3cccc(NC(=O)c4ccc(Cl)cc4)c3)cc2)CC1` [Compound 6h, 4-Chloro-N-(4′-((1-methylpiperidin-4-yl)oxy)-[1,1′-biphenyl]-3-yl)benzamide], for which the concentration for half-maximal inhibition (IC50) in experiment [1] (setting [7]) was 2230 ± 50 nM; in experiment [1] (setting [8]), 2230 ± 50 nM; in experiment [2] (setting [9]), 3630 ± 1030 nM; in experiment [2] (setting [10]) it was 3630 ± 1030 nM.
Take `CN1CCC(Oc2ccc(-c3ccc(NC(=O)c4cccc(-c5ccccc5)c4)cc3)cc2)CC1` [Compound 41r, N-(4′-((1-methylpiperidin-4-yl)oxy)-[1,1′-biphenyl]-4-yl)-[1,1′-biphenyl]-3-carboxamide]: the IC50 was found to be 1150 ± 180 nM in experiment [1] (setting [3]), 1150 ± 180 nM in experiment [1] (setting [11]), 730 ± 70 nM in experiment [2] (setting [4]) and 730 ± 70 nM in experiment [2] (setting [12]).
Regarding `COc1ccc(C(=O)Nc2ccc(Nc3ccc(OC4CCN(C)CC4)cc3)cc2)cc1` [drawing 159], the IC50 in experiment [1] (MCF7, Table 11, heteroatom linked biphenyl core) was found to be 2830 ± 1870 nM; in experiment [2] (SK-BR-3, Table 11, heteroatom linked biphenyl core), 18200 ± 2190 nM.
Turning to `COc1cccc(-c2cc(C(=O)Nc3ccc(-c4ccc(OC5CCN(C)CC5)cc4)c(OC)c3)ccc2OC)c1` [Compound 29g, 3′,6-dimethoxy-N-(2-methoxy-4′-((1-methylpiperidin-4-yl)oxy)-[1,1′-biphenyl]-4-yl)-[1,1′-biphenyl]-3-carboxamide], the IC50 in experiment [1] (setting [5]) amounted to 1500 ± 80 nM; in experiment [2] (setting [6]), 900 ± 80 nM.
Turning to `CN1CCC(Oc2ccc(-c3cccc(NC(=O)c4ccc5ccccc5c4)c3)cc2)CC1` [Compound 6q], the IC50 came to 1660 ± 270 nM in experiment [1] (setting [8]) and 2090 ± 340 nM in experiment [2] (setting [10]).
Consider `CN1CCC(Oc2ccc(-c3ccc(NC(=O)C45CC6CC(CC(C6)C4)C5)cc3)cc2)CC1` [Compound 61c, N-(4′-((1-methylpiperidin-4-yl)oxy)-[1,1′-biphenyl]-4-yl)adamantane-1-carboxamide], for which the values for the IC50 in experiment [1] (setting [7]) and in experiment [2] (setting [9]) were 2770 ± 230 nM and 2070 ± 350 nM, respectively.
`COc1cccc(-c2cc(C(=O)Nc3ccc(-c4ccc(OC5CCN(C)CC5)cc4)cn3)ccc2OC)c1` [Compound 19d, 3′,6-dimethoxy-N-(5-(4-((1-methylpiperidin-4-yl)oxy)phenyl)pyridin-2-yl)-[1,1′-biphenyl]-3-carboxamide]: the IC50 in experiment [1] (setting [13]) came out at 1020 ± 10 nM; in experiment [2] (setting [14]), 1070 ± 10 nM.
With `COc1cccc(-c2cc(C(=O)Nc3cccc(-c4cccc(OC5CCN(C)CC5)c4)c3)ccc2OC)c1` [Compound 61d, 3′,6-dimethoxy-N-(3′-((1-methylpiperidin-4-yl)oxy)-[1,1′-biphenyl]-3-yl)-[1,1′-biphenyl]-3-carboxamide], the IC50 in experiment [1] (setting [7]) was 2000 ± 70 nM; in experiment [2] (setting [9]) it was 1620 ± 70 nM.
Turning to `CN1CCC(Oc2ccc(-c3cccc(NC(=O)C45CC6CC(CC(C6)C4)C5)c3)cc2)CC1` [Compound 61a, N-(4′-((1-methylpiperidin-4-yl)oxy)-[1,1′-biphenyl]-3-yl)adamantane-1-carboxamide], the IC50 in experiment [1] (setting [7]) is 770 ± 80 nM; in experiment [2] (setting [9]), 1250 ± 40 nM.
Take `Cc1ccc(C(=O)Nc2ccc(-c3ccc(OC4CCN(C)CC4)cc3)cc2)cc1Cl` [Compound 41k, 3-chloro-4-methyl-N-(4′-((1-methylpiperidin-4-yl)oxy)-[1,1′-biphenyl]-4-yl)benzamide]: the concentration for half-maximal inhibition (IC50) was determined as 2280 ± 490 nM in experiment [1] (setting [3]) and 1960 ± 240 nM in experiment [2] (setting [4]).
In the same order, the values of `CN1CCC(Oc2ccc(-c3ccc(NC(=O)c4ccccc4-c4ccccc4)cc3)cc2)CC1` [Compound 41q, N-(4′-((1-methylpiperidin-4-yl)oxy)-[1,1′-biphenyl]-4-yl)-[1,1′-biphenyl]-2-carboxamide] are 6670 ± 830 nM and 6260 ± 1540 nM.
Turning to `CN1CCC(Oc2cccc(-c3cccc(NC(=O)c4ccc(C(C)(C)C)cc4)c3)c2)CC1` [Compound 61i, 4-(tert-butyl)-N-(3′-((1-methylpiperidin-4-yl)oxy)-[1,1′-biphenyl]-3-yl)benzamide], the half-inhibitory concentration (IC50) in experiment [1] (setting [7]) stood at 1930 ± 330 nM; in experiment [2] (setting [9]), 3360 ± 200 nM.
As to `COc1cccc(-c2cc(C(=O)Nc3ccc(-c4ccc(OC5CCN(C)CC5)cn4)cc3)ccc2OC)c1` [Compound 19b, 3′,6-dimethoxy-N-(4-(5-((1-methylpiperidin-4-yl)oxy)pyridin-2-yl)phenyl)-[1,1′-biphenyl]-3-carboxamide], the IC50 amounted to 1300 ± 150 nM in experiment [1] (setting [13]) and 1910 ± 210 nM in experiment [2] (setting [14]).
As for `CN1CCC(Oc2ccc(-c3ccc(NC(=O)c4ccc(Cl)cc4)cc3)cc2)CC1` [Compound 41b, 4-chloro-N-(4′-((1-methylpiperidin-4-yl)oxy)-[1,1′-biphenyl]-4-yl)benzamide], the IC50 in experiment [1] (setting [7]) stood at 520 ± 30 nM; in experiment [1] (setting [3]), 520 ± 30 nM; in experiment [2] (setting [9]), 570 ± 10 nM; in experiment [2] (setting [4]) it was 570 ± 10 nM.
For `CCCOc1ccc(C(=O)Nc2ccc(-c3ccc(OC4CCN(C)CC4)cc3)cc2)cc1-c1cccc(OC)c1`, the half-inhibitory concentration (IC50) worked out at 1660 ± 120 nM in experiment [1] (MCF7, Table 10, longer alkyl chain substituted biphenyl core) and 1030 ± 40 nM in experiment [2] (SK-BR-3, Table 10, longer alkyl chain substituted biphenyl core).
Turning to `COc1cccc(-c2cc(C(=O)Nc3ccc(-c4ccc(OC5CCN(C)CC5)cc4)c(NC(C)=O)c3)ccc2OC)c1` [Compound 39c, N-(2-acetamido-4′-((1-methylpiperidin-4-yl)oxy)-[1,1′-biphenyl]-4-yl)-3′,6-dimethoxy-[1,1′-biphenyl]-3-carboxamide], the 50% inhibitory concentration (IC50) in experiment [1] (setting [5]) was 4660 ± 490 nM; in experiment [2] (setting [6]) it was 2520 ± 260 nM.
In the same order, the values of `COc1cccc(-c2cc(C(=O)Nc3ccc(-c4ccc(OC5CCN(C)CC5)cc4)c(Cl)c3)ccc2OC)c1` [Compound 29k, N-(2-chloro-4′-((1-methylpiperidin-4-yl)oxy)-[1,1′-biphenyl]-4-yl)-3′,6-dimethoxy-[1,1′-biphenyl]-3-carboxamide] are 3440 ± 210 nM and 2210 ± 180 nM.
`COc1cccc(-c2cccc(C(=O)Nc3ccc(-c4ccc(OC5CCN(C)CC5)cc4)cc3)c2)c1` [Compound 49b, 3′-methoxy-N-(4′-((1-methylpiperidin-4-yl)oxy)-[1,1′-biphenyl]-4-yl)-[1,1′-biphenyl]-3-carboxamide]: the 50% inhibitory concentration (IC50) is 1020 ± 80 nM in experiment [1] (setting [11]) and 810 ± 140 nM in experiment [2] (setting [12]).
In the case of `COc1cccc(C(=O)Nc2ccc(-c3ccc(OC4CCN(C)CC4)cc3)cc2)c1` [Compound 41i, 3-methoxy-N-(4′-((1-methylpiperidin-4-yl)oxy)-[1,1′-biphenyl]-4-yl)benzamide], the figures for the IC50 in experiment [1] (setting [3]) and in experiment [2] (setting [4]) were 5310 ± 700 nM and 2870 ± 510 nM, respectively.
In the same order, the values of `Cc1cc(C(=O)Nc2ccc(-c3ccc(OC4CCN(C)CC4)cc3)cc2)ccc1Cl` [Compound 41j, 4-chloro-3-methyl-N-(4′-((1-methylpiperidin-4-yl)oxy)-[1,1′-biphenyl]-4-yl)benzamide] are 1030 ± 160 nM and 1110 ± 420 nM.
Regarding `COc1ccc(C(=O)Nc2cccc(-c3ccc(OC4CCN(C)CC4)cc3)c2)cc1` [Compound 6f, 4-methoxy-N-(4′-((1-methylpiperidin-4-yl)oxy)-[1,1′-biphenyl]-3-yl)benzamide], the IC50 is 5520 ± 10 nM in experiment [1] (setting [7]), 5520 ± 10 nM in experiment [1] (setting [8]), 10100 ± 930 nM in experiment [2] (setting [9]) and 10100 ± 930 nM in experiment [2] (setting [10]).
Turning to `CN1CCC(Oc2ccc(-c3ccc(NC(=O)c4ccc(Cl)c(Cl)c4)cc3)cc2)CC1` [Compound 41n, 3,4-dichloro-N-(4′-((1-methylpiperidin-4-yl)oxy)-[1,1′-biphenyl]-4-yl)benzamide], the IC50 came to 1600 ± 160 nM in experiment [1] (setting [3]) and 1200 ± 80 nM in experiment [2] (setting [4]).
In the same order, the values of `CN1CCC(Oc2ccc(-c3ccc(NC(=O)c4ccc(Br)cc4)cc3)cc2)CC1` [Compound 41c, 4-bromo-N-(4′-((1-methylpiperidin-4-yl)oxy)-[1,1′-biphenyl]-4-yl)benzamide] are 520 ± 150 nM and 520 ± 210 nM.
In the same order, the values of `Cc1ccc(C(=O)Nc2ccc(-c3ccc(OC4CCN(C)CC4)cc3)cc2)cc1Br` [Compound 41l, 3-bromo-4-methyl-N-(4′-((1-methylpiperidin-4-yl)oxy)-[1,1′-biphenyl]-4-yl)benzamide] are 3350 ± 360 nM and 2800 ± 180 nM.
